Test results as given in ChEMBL document CHEMBL1201862, “PubChem BioAssay data set” (2004).
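Method: 48-hour compound exposure of cells in 96-well plates, five concentrations, linear interpolation of endpoints. The concentration for 50% growth inhibition is given as GI50.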 Active and inactive are the calls of the source. Rule as the data show it: active = GI50 up to about 1.1 µM and inactive = higher.

What was measured:
Test in all cases: growth of human tumour cells (NCI), 48 h
Hs-578T = test system: Hs-578T
TK-10 = test system: TK-10
786-0 = test system: 786-0
OVCAR-4 = test system: OVCAR-4
MDA-MB-231 = test system: MDA-MB-231
COLO 205 = test system: COLO 205
DU-145 = test system: DU-145
MCF7 = test system: MCF7
CCRF-CEM = test system: CCRF-CEM
SW-620 = test system: SW-620
SNB-19 = test system: SNB-19
SK-MEL-5 = test system: SK-MEL-5
OVCAR-3 = test system: OVCAR-3
IGROV-1 = test system: IGROV-1
ACHN = test system: ACHN
HCC 2998 = test system: HCC 2998
SR = test system: SR
A498 = test system: A498
SK-OV-3 = test system: SK-OV-3

Row | SMILES | GI50 (Hs-578T) | GI50 (TK-10) | GI50 (786-0) | GI50 (OVCAR-4) | GI50 (MDA-MB-231) | GI50 (COLO 205) | GI50 (DU-145) | GI50 (MCF7) | GI50 (CCRF-CEM) | GI50 (SW-620) | GI50 (SNB-19) | GI50 (SK-MEL-5) | GI50 (OVCAR-3) | GI50 (IGROV-1) | GI50 (ACHN) | GI50 (HCC 2998) | GI50 (SR) | GI50 (A498) | GI50 (SK-OV-3)
1 | COC(=O)c1cc(C)ccc1/C=C1\Cc2c(C)cc(C)cc2C1=O | 14 µM (inactive) | 17.9 µM (inactive) | 14 µM (inactive) | 24.4 µM (inactive) | > 36.6 µM (inactive) | > 100 µM (inactive) | > 100 µM (inactive) | > 100 µM (inactive) | > 100 µM (inactive) | > 100 µM (inactive) | 15.7 µM (inactive) | > 100 µM (inactive) | 70.6 µM (inactive) | 65.3 µM (inactive) | 60.7 µM (inactive) | > 100 µM (inactive) | 20 µM (inactive) | 30.8 µM (inactive) | –
2 | C=C/C(C)=C\CC1[C@](C)(O)CC[C@H]2C(C)(C)C(O)CC[C@]12C (stereo partly specified) | > 100 µM (inactive) | > 100 µM (inactive) | > 100 µM (inactive) | > 100 µM (inactive) | > 100 µM (inactive) | > 100 µM (inactive) | > 100 µM (inactive) | 70.1 µM (inactive) | 27.5 µM (inactive) | > 100 µM (inactive) | > 100 µM (inactive) | 84.1 µM (inactive) | 92.3 µM (inactive) | > 100 µM (inactive) | > 100 µM (inactive) | – | 40.8 µM (inactive) | > 100 µM (inactive) | –
3 | Cc1cc2c(cc1C(=O)c1ccc(N)cc1)OCO2 | 48 µM (inactive) | 28.2 µM (inactive) | 34.6 µM (inactive) | – | 34.1 µM (inactive) | 16 µM (inactive) | 55 µM (inactive) | 20.1 µM (inactive) | 39.1 µM (inactive) | 34.8 µM (inactive) | 57.7 µM (inactive) | 20 µM (inactive) | 0.347 µM (active) | 33.5 µM (inactive) | > 100 µM (inactive) | – | 5.08 µM (inactive) | – | 24.5 µM (inactive)
4 | CCOC(=O)CSc1nnc2cc(CN3CCCC3)c(-c3ccc(Cl)cc3)nn12 | > 100 µM (inactive) | > 100 µM (inactive) | 92.3 µM (inactive) | 33.6 µM (inactive) | > 100 µM (inactive) | > 100 µM (inactive) | 71.6 µM (inactive) | 46.9 µM (inactive) | 48.1 µM (inactive) | > 100 µM (inactive) | > 100 µM (inactive) | > 100 µM (inactive) | > 100 µM (inactive) | > 100 µM (inactive) | > 100 µM (inactive) | – | 41 µM (inactive) | > 100 µM (inactive) | > 100 µM (inactive)
5 | CC(=O)NS(=O)(=O)c1ccc(NCc2cccc3c(=O)c4ccc(Cl)cc4oc23)cc1 | 25.4 µM (inactive) | > 63.4 µM (inactive) | > 55.8 µM (inactive) | > 54.5 µM (inactive) | > 59 µM (inactive) | > 57.7 µM (inactive) | 61 µM (inactive) | 8.3 µM (inactive) | 4.2 µM (inactive) | 34 µM (inactive) | 57.3 µM (inactive) | 40.1 µM (inactive) | 44.6 µM (inactive) | 24.8 µM (inactive) | 38.5 µM (inactive) | 38.5 µM (inactive) | – | 41.9 µM (inactive) | > 53.8 µM (inactive)
6 | CCC1c2[nH]c3ccccc3c2C[C@H]2C(=O)NC(Cc3c[nH]c4ccccc34)C(=O)N12 (stereo partly specified) | 22.6 µM (inactive) | 23.2 µM (inactive) | 23.4 µM (inactive) | 29.9 µM (inactive) | 17.1 µM (inactive) | 18.8 µM (inactive) | 37.7 µM (inactive) | 27.3 µM (inactive) | – | 38.5 µM (inactive) | 37.5 µM (inactive) | 17.5 µM (inactive) | 18.2 µM (inactive) | 24.4 µM (inactive) | 29.4 µM (inactive) | – | 16.9 µM (inactive) | 30.5 µM (inactive) | 34 µM (inactive)
7 | CN(C)CCCOCCn1c2c(c3ccccc31)CCCC2 | 19.7 µM (inactive) | 18.4 µM (inactive) | 15.2 µM (inactive) | 15.2 µM (inactive) | 13 µM (inactive) | 16.6 µM (inactive) | 27.9 µM (inactive) | 16.4 µM (inactive) | 12.9 µM (inactive) | 18.7 µM (inactive) | – | 12.7 µM (inactive) | 18.2 µM (inactive) | 15.8 µM (inactive) | 15.2 µM (inactive) | 14.4 µM (inactive) | 18.1 µM (inactive) | – | > 10 µM (inactive)
8 | O=C(NN=C1NCCN1)c1ccco1 | > 100 µM (inactive) | > 100 µM (inactive) | > 100 µM (inactive) | > 100 µM (inactive) | > 100 µM (inactive) | > 100 µM (inactive) | > 100 µM (inactive) | > 100 µM (inactive) | > 100 µM (inactive) | > 100 µM (inactive) | > 100 µM (inactive) | > 100 µM (inactive) | > 100 µM (inactive) | > 100 µM (inactive) | > 100 µM (inactive) | > 100 µM (inactive) | > 100 µM (inactive) | – | > 100 µM (inactive)
9 | Cc1ccc(C)c(NC(=O)NCc2ccc(Cl)cc2)c1 | 25.5 µM (inactive) | 20.5 µM (inactive) | 20.6 µM (inactive) | 20.1 µM (inactive) | 20 µM (inactive) | > 100 µM (inactive) | > 66.7 µM (inactive) | 50.2 µM (inactive) | 8.51 µM (inactive) | 50.7 µM (inactive) | > 23.3 µM (inactive) | > 70.5 µM (inactive) | 28.5 µM (inactive) | 41.9 µM (inactive) | 20.5 µM (inactive) | – | 13.8 µM (inactive) | 20.8 µM (inactive) | 13.8 µM (inactive)
10 | NCCCC(N)C(=O)O (stereo unspecified) | > 100 µM (inactive) | > 100 µM (inactive) | > 100 µM (inactive) | > 100 µM (inactive) | > 100 µM (inactive) | > 100 µM (inactive) | > 100 µM (inactive) | > 100 µM (inactive) | > 100 µM (inactive) | > 100 µM (inactive) | > 100 µM (inactive) | > 100 µM (inactive) | > 100 µM (inactive) | > 100 µM (inactive) | > 100 µM (inactive) | – | > 100 µM (inactive) | > 100 µM (inactive) | > 100 µM (inactive)
11 | CCN(CC)CCC(=O)c1ccc(Oc2ccccc2)cc1 | 18.2 µM (inactive) | 14.2 µM (inactive) | 15.6 µM (inactive) | 23.9 µM (inactive) | 20.7 µM (inactive) | 17.7 µM (inactive) | 27.7 µM (inactive) | 17.9 µM (inactive) | 22.1 µM (inactive) | 17.1 µM (inactive) | 18.9 µM (inactive) | – | 19.7 µM (inactive) | 17.1 µM (inactive) | 15.8 µM (inactive) | 17.6 µM (inactive) | 39.4 µM (inactive) | – | > 100 µM (inactive)
12 | Nc1nc2cc(CNc3ccc(C(=O)NC(CCC(=O)O)C(=O)O)cc3)ccc2nc1-c1ccccc1 (stereo unspecified) | > 10 µM (inactive) | > 10 µM (inactive) | > 10 µM (inactive) | > 10 µM (inactive) | > 10 µM (inactive) | > 10 µM (inactive) | > 10 µM (inactive) | > 10 µM (inactive) | > 10 µM (inactive) | > 10 µM (inactive) | > 10 µM (inactive) | > 10 µM (inactive) | > 10 µM (inactive) | > 10 µM (inactive) | > 10 µM (inactive) | > 10 µM (inactive) | – | > 10 µM (inactive) | > 10 µM (inactive)
13 | COc1cc2c(cc1O)CC[n+]1cc3c(OC)c(OC)ccc3cc1-2 | > 100 µM (inactive) | > 100 µM (inactive) | > 100 µM (inactive) | > 100 µM (inactive) | > 100 µM (inactive) | 72.4 µM (inactive) | > 100 µM (inactive) | > 100 µM (inactive) | > 100 µM (inactive) | > 100 µM (inactive) | 60.1 µM (inactive) | 51.1 µM (inactive) | 59.4 µM (inactive) | > 100 µM (inactive) | > 100 µM (inactive) | > 100 µM (inactive) | – | > 100 µM (inactive) | > 100 µM (inactive)
14 | O=c1[nH]nc(Cc2ccccc2)n1/N=C/c1ccc([N+](=O)[O-])o1 | 1 µM (active) | 4.36 µM (inactive) | 2.76 µM (inactive) | 4.92 µM (inactive) | 3.38 µM (inactive) | 1.89 µM (inactive) | 3.77 µM (inactive) | 1.86 µM (inactive) | 1.16 µM (inactive) | 1.39 µM (inactive) | 4.83 µM (inactive) | 1.83 µM (inactive) | 0.292 µM (active) | 2.67 µM (inactive) | 3.4 µM (inactive) | 3.99 µM (inactive) | – | 7.41 µM (inactive) | 15.4 µM (inactive)
15 | CN1CC=C(C#CC(C)(C)O)CC1 | > 37.5 µM (inactive) | > 37.5 µM (inactive) | > 37.5 µM (inactive) | > 37.5 µM (inactive) | > 37.5 µM (inactive) | > 37.5 µM (inactive) | > 37.5 µM (inactive) | > 37.5 µM (inactive) | > 37.5 µM (inactive) | > 37.5 µM (inactive) | > 37.5 µM (inactive) | > 37.5 µM (inactive) | > 37.5 µM (inactive) | > 37.5 µM (inactive) | > 37.5 µM (inactive) | > 37.5 µM (inactive) | > 37.5 µM (inactive) | – | > 37.5 µM (inactive)
16 | Cc1ccc([S+]([O-])CC(CF)OCn2cc(C)c(=O)[nH]c2=O)cc1 (stereo unspecified) | > 100 µM (inactive) | > 100 µM (inactive) | > 100 µM (inactive) | > 100 µM (inactive) | > 100 µM (inactive) | > 100 µM (inactive) | > 100 µM (inactive) | > 100 µM (inactive) | – | > 100 µM (inactive) | > 100 µM (inactive) | > 100 µM (inactive) | > 100 µM (inactive) | > 100 µM (inactive) | > 100 µM (inactive) | > 100 µM (inactive) | > 100 µM (inactive) | – | > 100 µM (inactive)
